{"source": "patent EP2229935A1", "about": "“Peptide derivatives or pharmaceutically acceptable salts thereof, method for producing the same, use of said derivatives and pharmaceutical composition” (Nebolsin, Vladimir Evgenievich, priority 1997, dated 1999)", "key": {"[C^14]-arachidonic acid": {"system": "[C^14]-arachidonic acid", "experiment": "Metabolism of [C^14]-arachidonic acid in pulmonary tissue homogenate of treated mice", "assay_type": "in vivo, CBA male mice", "conditions": "CBA mice lung homogenate; 50 µg/kg for three days", "description": "Studies were carried out on CBA male mice fed a standard vivarium ration. […] Then animals were sacrified, their lungs were taken out, frozen in liquid nitrogen, homogenized in a glass homogenizer manufactured by the Wheaton company (U.S.A.) at +4°C in 10 volumes 0.05 M Tris-HCl buffer. […] Densitometry of the autoradiochromatograms obtained on the X-ray films X-Omat AR (Kodak, U.S.A.) and HS 11 (ORWO, Germany) were performed on the KS 3 densiscan (Kipp and Zonnen, Holland). Quantative analysis of individual eucosanoids was carried out using radiometry of the fractions obtained with high performance liquid chromatography (the Gilson company HPLC-system, France; the Du Pont company ZORBAX C8 column, U.S.A.) and with elution of spots on TLC-plates."}, "[1]": {"system": "Lewis pulmonary carcinoma (LLC)", "experiment": "LLC metastasizing with surgical resection of the primary tumor node, alone and with Cyclophosphane", "assay_type": "in vivo, C57BL/6 female mice", "conditions": "day 29", "description": "An important property of the compounds is their ability to manifest pharmacological activity on the model with resection of the primary tumor node and not to lower therapeutic efficacy of respective antitumor drugs. […] Surgical resection of the primary tumor node was performed by day 13 following tumor transplantation. The test anitumor compounds were administered according to two dosage regimens:\nDosage regimen 1 - animals were administered compound III from day 1 till day 13 of experiment at a dose 500 µg/kg (group 1); Cyclophosphane was administered intraperitoneally two times before operation with 96 hour interval at a dose 100 µg/kg (group 2); combined administration of compound III and Cyclophosphane was similar to administration of substances in groups 1 and 2 (group 3). Number of metastases was calculated by day 29 of experiment;\nDosage regimen 2 - animals were administered compound III from day 14 of experiment (commencement of administration 24 hours post operation) till day 28 (group 4); Cyclophosphane was administered twice post operation with 96 hour interval at a dose 100 µg/kg (group 5); combined administration of compound III and Cyclophosphane similar to administration of substances in groups 4 and 5 (group 6). Antimetastatic efficacy of the drugs was considered by day 29 of experiment."}, "superoxide anion-radical": {"system": "superoxide anion-radical", "experiment": "Superoxide anion-radical formation in the xantine-xantine oxidase system (chemiluminescence)", "assay_type": "biochemical"}, "[2]": {"system": "Lewis pulmonary carcinoma (LLC)", "experiment": "Lewis pulmonary carcinoma growth", "assay_type": "in vivo", "conditions": "mice with LLC, day 12", "experimental": "Experiments were carried out on male mice with initial body mass 18-20 g. Each group included 10 animals. […] Administration of compounds II, III, IX, X, XII, XIV, XV, XVI, XVII, XIX, XXII, XLVII in drinking water was commenced 24 hours following transplantation and continued till the end of experiment. Effect of the compounds on Lewis rat pulmonary carcinoma (LLC) was estimated by day 12 of experiment by change in tumor volume expressed in mm^3."}, "Wistar male rats": {"system": "Wistar male rats", "experiment": "Blood glucose level in rats with streptozotocine diabetes", "assay_type": "in vivo", "conditions": "for Blood glucose level: Initial level: intragastral four days", "description": "Experiments were carried out on Wistar male rats weighing 250-300 g. Experimental diabetes was induced with single intravenous injection of streptozotocine (the Synthez cooperative enterprise at the IMBG of the Academy of Sciences of Ukraine) at a dose 42 mg/kg to rats which were preliminarily fasting for 24 hours with access to food immediately following injection. Rats were selected for experiment 2 weeks after diabetes induction with glycemia 120-180 mg/dl. Each group included 12 animals.\nThe compounds were intragastrally administered to intact animals and to rats with streptozotocine diabetes for four days at daily doses 50 µg/kg and 500 µg/kg in water solution at a rate of 1 ml per 200 g of body mass. Intact animals were given the compounds III and XLIV, and rats with induced diabetes were given the compound XLIV. Check blood glucose level determination was done at the day of experiment, then animals were administered the test compounds and were deprived of food. The control animals received a respective water volume. Effect was estimated by change in blood glucose level in 2 and 5 hours. Then animals received forage and 24 hours after the last drug administration blood was again sampled for examination. 0.1 ml of blood were collected from the tail vein. Glucose level was determined using the o-toluidine method.\nGlucose level was calculated in mg/dl using standard glucose solutions. Then the degree of change in glucose level in relation to the initial level was determined for each animal with its expression in percent from the initial level. Final calculation was performed for each group of animals. Each group included 10 animals."}, "[3]": {"system": "hepatic P-450 cytochrome system", "experiment": "Hexenal sleep duration in guinea pigs", "assay_type": "in vivo", "conditions": "oral 3 days, 50 µg/kg, control 24.76 ± 3.23", "description": "Change in Hexenal sleep (HS) duration is the in vivo measurable index of hepatic P-450 cytochrome system condition.\nStudies were carried out on male mice of the lines BALB/c*h75, C57B1/6, CBA, DBA/2, first generation CBF1 and BDF1 hybrides, with initial mass 18-20 g, each group including 10 mice; and on mongrel male guinea pigs with initial mass 250-300 g, each group including 24 animals. All the test compounds (from II to LII) were administered orally in drinking water and for three days at doses 50 and 500 µg/kg. Hexenal hydrochloride at a dose […] of animal mass was administered 24 hours after the last drug administration, except for line BALB/c*h75 mice, which were administered Hexenal at a dose 60 µg/kg at the same terms, and guinea pigs for which Hexenal dose was 30 µg/kg. HS duration was determined in minutes."}, "[4]": {"system": "encephalomyocarditis virus", "experiment": "Protection of mice against encephalomyocarditis virus infection", "assay_type": "in vivo", "conditions": "100 LD50 virus, once intraperitoneally 24 hours after infection, 30 µg/kg", "description": "Studies ere carried out on mongrel mice of both sexes with initial body mass 10-11 g. The control and experimental groups included 30 animals each. Compound XLIV and the reference drug interferon inducer Ridostine were administered once intraperitoneally 24 hours after infection of mice with encephalomyocarditis virus at doses 30 µg/kg and 5.0 mg/kg, respectively. Encephalomyocarditis virus was administered at a dose 100 LD50. Antiviral activity was determined by change in mean lifetime (MLT) of mice and by the degree of protection against lethal viral infection."}, "[5]": {"conditions": "regimen 1, prior to operation: day 1 till day 13, 500 µg/kg"}, "[6]": {"conditions": "regimen 2, post operation: day 14 till day 28"}}, "note": "Marks after values point to notes of the source that are not given here.", "data": [{"compound": "O=C(O)CCCC(=O)NCCc1c[nH]cn1", "note": "[compound III, N-GLUTARYLHISTAMINE]", "values": [{"measurement": "5-HETE+HHT, percent of AA conversion", "setting": "[C^14]-arachidonic acid", "result": "13.64 ± 0.26% of AA conversion"}, {"measurement": "6-keto-PGF1α, percent of AA conversion", "setting": "[C^14]-arachidonic acid", "result": "7.95 ± 0.28% of AA conversion"}, {"measurement": "12-, 15-HETE, percent of AA conversion", "setting": "[C^14]-arachidonic acid", "result": "23.82 ± 0.82% of AA conversion"}, {"measurement": "PGE2, percent of AA conversion", "setting": "[C^14]-arachidonic acid", "result": "3.07 ± 0.11% of AA conversion"}, {"measurement": "PGF2α, percent of AA conversion", "setting": "[C^14]-arachidonic acid", "result": "8.05 ± 0.15% of AA conversion"}, {"measurement": "Phospholipids, percent of AA conversion", "setting": "[C^14]-arachidonic acid", "result": "7.41 ± 0.25% of AA conversion"}, {"measurement": "TXB2, percent of AA conversion", "setting": "[C^14]-arachidonic acid", "result": "5.76 ± 0.24% of AA conversion"}, {"measurement": "Unmetabolized AA, percent of AA conversion", "setting": "[C^14]-arachidonic acid", "result": "15.32 ± 1.56% of AA conversion"}, {"measurement": "Mean number of metastases", "setting": "[1]; [5]", "result": "32.0 ± 11.8"}, {"measurement": "Metastasizing inhibition percent", "setting": "[1]; [5]", "result": 8.0, "unit": "%"}, {"measurement": "Metastasizing rate (%)", "setting": "[1]; [5]", "result": 100, "unit": "%"}, {"measurement": "Mean number of metastases", "setting": "[1]; [6]", "result": "28.6 ± 8.5"}, {"measurement": "Metastasizing inhibition percent", "setting": "[1]; [6]", "result": 22.9, "unit": "%"}, {"measurement": "Metastasizing rate (%)", "setting": "[1]; [6]", "result": 100, "unit": "%"}, {"measurement": "Chemiluminiscence intensity (mV) + σn-1", "setting": "superoxide anion-radical; 0.1 mM, control of the series as in the table", "result": "5670 ± 379", "unit": "mV"}, {"measurement": "relative effect: 1+/I-", "setting": "superoxide anion-radical; 1 mM", "result": 0.72}, {"measurement": "Chemiluminiscence intensity (mV) + σn-1", "setting": "superoxide anion-radical; 1 mM, control of the series 5616 ± 173, 5391 ± 195, 7290 ± 128 or 6776 ± 150", "result": "4027 ± 683", "unit": "mV"}, {"measurement": "Growth inhibition percent", "setting": "[2]; compound in drinking water", "result": 53, "unit": "%"}, {"measurement": "Tumor volume (mm^3)", "setting": "[2]; compound in drinking water from 24 hours after transplantation", "result": "1249 ± 168** mm^3"}, {"measurement": "Blood glucose level in 2 hours, percent from the initial level", "setting": "Wistar male rats; 50 µg/kg", "result": "65.4 ± 4.3", "unit": "%"}, {"measurement": "Blood glucose level in 5 hours, percent from the initial level", "setting": "Wistar male rats; 50 µg/kg", "result": "43.9 ± 4.9", "unit": "%"}, {"measurement": "Blood glucose level in 24 hours, percent from the initial level", "setting": "Wistar male rats; 50 µg/kg", "result": "83.7 ± 6.6", "unit": "%"}, {"measurement": "Blood glucose level: mg/dl in 2 hours", "setting": "Wistar male rats; 50 µg/kg", "result": "94.4 ± 5.4", "unit": "mg/dL"}, {"measurement": "Blood glucose level: mg/dl in 5 hours", "setting": "Wistar male rats; 50 µg/kg", "result": "64.1 ± 5.0", "unit": "mg/dL"}, {"measurement": "Blood glucose level: mg/dl in 24 hours", "setting": "Wistar male rats; 50 µg/kg", "result": "122.2 ± 9.2", "unit": "mg/dL"}, {"measurement": "Blood glucose level in 2 hours, percent from the initial level", "setting": "Wistar male rats; 500 µg/kg", "result": "67.6 ± 3.6", "unit": "%"}, {"measurement": "Blood glucose level in 5 hours, percent from the initial level", "setting": "Wistar male rats; 500 µg/kg", "result": "44.9 ± 4.5", "unit": "%"}, {"measurement": "Blood glucose level in 24 hours, percent from the initial level", "setting": "Wistar male rats; 500 µg/kg", "result": "98.9 ± 10.2", "unit": "%"}, {"measurement": "Blood glucose level: mg/dl in 2 hours", "setting": "Wistar male rats; 500 µg/kg", "result": "98.8 ± 5.6", "unit": "mg/dL"}, {"measurement": "Blood glucose level: mg/dl in 5 hours", "setting": "Wistar male rats; 500 µg/kg", "result": "65.1 ± 1.1", "unit": "mg/dL"}, {"measurement": "Blood glucose level: mg/dl in 24 hours", "setting": "Wistar male rats; 500 µg/kg", "result": "143.4 ± 10.9", "unit": "mg/dL"}, {"measurement": "Blood glucose level: Initial level", "setting": "Wistar male rats; 50 µg/kg", "result": "146.9 ± 8.2", "unit": "mg/dL"}, {"measurement": "Blood glucose level: Initial level", "setting": "Wistar male rats; 500 µg/kg", "result": "145.2 ± 10.6", "unit": "mg/dL"}]}, {"compound": "γ-L-glutamylhistamine [compound XLIV]", "values": [{"measurement": "Hexenal sleep duration (minutes)", "setting": "[3]", "result": "13.48 ± 1.02* minutes"}, {"measurement": "MLT, days", "setting": "[4]", "result": "12.5* days"}, {"measurement": "Protection degree, percent", "setting": "[4]", "result": 17.0, "unit": "%"}, {"measurement": "Survival rate, percent", "setting": "[4]", "result": "30.3* percent"}]}]}
